Test results published in US5164388A, “Heterocyclic peptide renin inhibitors” (Abbott Laboratories, priority 1991, dated 1992).

Biological target: T1, human renal renin (Homo sapiens, UniProt P00797)
T1 construct: human renal renin, free from acid proteolytic activity; from tissue
T1 sequence (P00797 67-406): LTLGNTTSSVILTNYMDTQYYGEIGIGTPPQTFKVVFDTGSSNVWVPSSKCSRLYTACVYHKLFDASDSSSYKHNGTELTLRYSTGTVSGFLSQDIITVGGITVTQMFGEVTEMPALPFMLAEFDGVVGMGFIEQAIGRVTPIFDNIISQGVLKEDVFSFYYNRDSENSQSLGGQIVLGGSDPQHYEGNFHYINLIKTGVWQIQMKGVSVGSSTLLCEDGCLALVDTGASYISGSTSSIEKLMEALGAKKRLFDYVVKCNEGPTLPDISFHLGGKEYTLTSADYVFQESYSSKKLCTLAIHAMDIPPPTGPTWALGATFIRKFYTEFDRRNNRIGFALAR
Test: Inhibition of human renal renin in vitro (angiotensin I formed, radioimmunoassay)
Type: biochemical
Details: human angiotensinogen substrate, 37 degrees C., pH 6.0
Method: The novel compounds of the present invention are also useful for treating congestive heart failure. […] At the end of the incubation, the amount of angiotensin I formed is measured by radioimmunoassay and the molar concentration required to cause 50% inhibition, expressed as the IC50, is calculated.

Row | SMILES | IC50 [µM]
1 | C[C@@H]1CO[C@H]([C@H](O)[C@H](CC2CCCCC2)NC(=O)C(Cc2nccn2C(=O)OC(C)(C)C)N2CCN(S(=O)(=O)N3CCN(C)CC3)[C@H](Cc3ccccc3)C2=O)C1 (stereo partly drawn) [Example 146, 3-(3N-tert-butyloxycarbonyl-2-imidazolyl)-2-(3R-benzyl-4N-(N-methylpiperazyl)-sulfonyl-2-keto-piperazin-1-yl)-propionic acid Amide of 2(s)-(2(s)-Amino-3-cyclohexyl-1(R) hydroxy)propyl-4(S)-methyltetrahydrofuran] | 0.0016
2 | CCCCNC(=O)[C@H](C[C@H](O)[C@H](CC1CCCCC1)NC(=O)C(Cc1cscn1)N1CCN(C(=O)N2CCOCC2)[C@H](Cc2ccccc2)C1=O)C(C)C (stereo partly drawn) [Example 129, 3-(3-Thiazolyl)-2-(3R-benzyl-4-N-morpholin-1-yl-carbonyl-2-keto-piperazin-1-yl)-propionic acid Amide of Butyl 5(S)-amino-6-cyclohexyl-4(S)-hydroxy-2(R)-isopropylhexan-amide] | 0.0013
3 | CC(C)C[C@H](O)[C@H](O)[C@H](CC1CCCCC1)NC(=O)C(Cc1nccn1C(=O)OC(C)(C)C)N1CCN(S(=O)(=O)N2CCN(C)CC2)[C@H](Cc2ccccc2)C1=O (stereo partly drawn) [Example 144, 3-(3N-tert-butyloxycarbonyl-2-imidazolyl)-2-(3R-benzyl-4N-(N-methylpiperazyl)-sulfonyl-2-keto-piperazin-1-yl)-propionic acid Amide of 2(S)-Amino-1-cyclohexyl-3(R),4(S)-dihydroxy-6-methylheptane] | 0.0066
4 | CC(C)C[C@H](O)[C@H](O)[C@H](CC1CCCCC1)NC(=O)C(Cc1cscn1)N1CCN(Cc2ccccc2)[C@H](Cc2ccccc2)C1 (stereo partly drawn) [Example 36, 3-(4-Thiazolyl)-2-(R,S)-(3R-benzyl-4-N-benzylpiperazin-1-yl)-propionic acid Amide of 2(S)-Amino-1-cyclohexyl-3(R),4(S)-dihydroxy-6-methylheptane] | 0.33
5 | CCCC[C@@H](C(=O)N[C@@H](CC1CCCCC1)[C@@H](O)[C@@H](O)CC(C)C)N1CCN(C(=O)OC(C)(C)C)[C@H](Cc2ccccc2)C1=O [Example 44, 2(S)-(3R-Benzyl-4N-tert-butyloxycarbonyl-2-keto-piperazin-1-yl)-hexanoic acid Amide of 2(S)-Amino-1-cyclohexyl-3(R),4(S)-dihydroxy-6-methylheptane] | 0.015
6 | CCCC[C@@H](C(=O)OC)N(CC(=O)OCc1ccccc1)C[C@@H](Cc1ccccc1)NC(=O)OCc1ccccc1 [Example 22] | 0.3
7 | CCCCC(C(=O)N[C@@H](CC1CCCCC1)[C@@H](O)[C@@H](O)CC(C)C)N1CCCC(Cc2ccccc2)C1 (stereo partly drawn) [Example 18, 2-(3-Benzylpiperidin-1-yl)-hexanoic acid Amide of 2(S)-Amino-1-cyclohexyl-3(R),4(S)-dihydroxy-6-methylheptane] | 0.92
8 | CCCCC(C(=O)N[C@@H](CC1CCCCC1)[C@@H](O)[C@@H](O)CC(C)C)N1CCCC(Cc2ccccc2)C1 (stereo partly drawn) [Example 20, 2(3-Benzylpiperidin-1-yl)-hexanoic acid Amide of 2(S)-Amino-1-cyclohexyl-3(R),4(S)-dihydroxy-6-methylheptane] | 0.24
